Experimental data: patent US20140309244A1, “NOVEL MICROBIOCIDES” (SYNGENTA PARTICIPATIONS AG, priority 2010, published 2014)

Tests used:
[1] = system: Mycosphaerella graminicola (Septoria tritici); experiment: Mycosphaerella graminicola (Septoria tritici) / liquid culture (Septoria blotch); type: cell-based; settings: Zymoseptoria tritici, PDB potato dextrose broth, 96-well plate, 24° C., 4-5 days after application, read-out: control of Mycosphaerella graminicola (inhibition of growth, photometric)
[2] = system: Glomerella lagenarium (Colletotrichum lagenarium); experiment: Glomerella lagenarium (Colletotrichum lagenarium) / liquid culture (anthracnose); type: cell-based; settings: Colletotrichum orbiculare, PDB potato dextrose broth, 96-well plate, 24° C., 3-4 days after application, read-out: control of Glomerella lagenarium (inhibition of growth, photometric)
[3] = system: Phaeosphaeria nodorum (Septoria nodorum); experiment: Phaeosphaeria nodorum (Septoria nodorum) / wheat / leaf disc preventative (glume blotch); type: in vivo; settings: Parastagonospora nodorum, foliar, wheat cv Kanzler leaf segments, inoculated 2 days after application, assessed 5-7 days after application, read-out: control of Phaeosphaeria nodorum (percent disease control compared to untreated)
[4] = system: Botryotinia fuckeliana (Botrytis cinerea); experiment: Botryotinia fuckeliana (Botrytis cinerea) / liquid culture (gray mould); type: cell-based; settings: Vogels broth, 96-well plate, 24° C., 3-4 days after application, read-out: control of Botryotinia fuckeliana (inhibition of growth, photometric)
[5] = system: Monographella nivalis (Microdochium nivale); experiment: Monographella nivalis (Microdochium nivale) / liquid culture (foot rot cereals); type: cell-based; settings: PDB potato dextrose broth, 96-well plate, 24° C., 4-5 days after application, read-out: control of Monographella nivalis (inhibition of growth, photometric)
Description: Monographella nivalis (Microdochium nivale)/Liquid Culture (Foot Rot Cereals): Conidia of the fungus from cryogenic storage were directly mixed into nutrient broth (PDB potato dextrose broth). After placing a DMSO solution of test compound into a 96-well microtiter plate at an application rate of 200 ppm, the nutrient broth containing the fungal spores was added. The test plates were incubated at 24° C. and the inhibition of growth was determined photometrically 4-5 days after application. […].103

[6] = system: Mycosphaerella arachidis (Cercospora arachidicola); experiment: Mycosphaerella arachidis (Cercospora arachidicola) / liquid culture (early leaf spot); type: cell-based; settings: PDB potato dextrose broth, 96-well plate, 24° C., 4-5 days after application, read-out: control of Mycosphaerella arachidis (inhibition of growth, photometric)
[7] = system: Pyrenophora teres; experiment: Pyrenophora teres / barley / leaf disc preventative (net blotch); type: in vivo; settings: foliar, barley cv Hasso leaf segments, inoculated two days after application, assessed 5-7 days after application, read-out: control of Pyrenophora teres (disease control compared to untreated)
[8] = system: Gaeumannomyces graminis; experiment: Gaeumannomyces graminis / liquid culture (take-all of cereals); type: cell-based; settings: liquid culture of mycelial fragments, PDB potato dextrose broth, 96-well plate, 24° C., 4-5 days after application, read-out: control of Gaeumannomyces graminis (inhibition of growth, photometric)

Compound	inhibition at 200 ppm [1]	inhibition at 200 ppm [4]	inhibition at 200 ppm [6]	also measured
CO/N=C(\C)c1cccc(CCCON=C(C)c2ccnc(-c3cccc(C)n3)n2)n1 (single isomer, unassigned) [P.63A]	≥ 80%	–	–	inhibition at 200 ppm [2]: ≥ 80%; pest or weed control at 200 ppm [3]: ≥ 80%
CO/N=C(\C)c1cccc(CCCON=C(C)c2ccnc(-c3cccc(C)n3)n2)n1 (single isomer, unassigned) [P.63B]	–	≥ 80%	–	–
C=C(CCO/N=C(\C)c1cccc(C)n1)c1cccc(/C(C)=N/OC)n1 [P.05, (E)-1-(6-{1-methylene-3-[1-(6-methyl-pyridin-2-yl)-eth-(E)-ylideneaminooxy]-propyl}-pyridin-2-yl)-ethanone O-methyl-oxime]	≥ 80%	–	–	inhibition at 200 ppm [5]: ≥ 80%
C/C(=N\OCCCc1cccc(/C(C)=N/O)n1)c1cccc(C)n1 [P.11]	≥ 80%	≥ 80%	–	–
CO/N=C(\C)c1cccc(C(CCO/N=C(\C)c2cccc(C)n2)=C(Cl)Cl)n1 [P.13]	≥ 80%	–	≥ 80%	pest or weed control at 200 ppm [7]: ≥ 80%; inhibition at 200 ppm [8]: ≥ 80%; pest or weed control at 200 ppm [3]: ≥ 80%
CO/N=C(\C)c1cccc(CCCO/N=C(\C)c2cccc(-c3cc(C)ccc3C)n2)n1 [P.15]	≥ 80%	≥ 80%	≥ 80%	pest or weed control at 200 ppm [7]: ≥ 80%
CO/N=C(\C)c1cccc(CCCO/N=C(\C)c2cccc(-c3ccccc3O)n2)n1 [P.16]	≥ 80%	–	–	–
CO/N=C(\C)c1cccc(CCCO/N=C(\C)c2ccccn2)n1 [P.17]	–	≥ 80%	–	–
C#Cc1cccc(/C(C)=N/OCCCc2cccc(/C(C)=N/OC)n2)n1 [P.18]	–	≥ 80%	≥ 80%	–
CO/N=C(\C)c1cccc(CCCO/N=C(\C)c2cccc(C3CC3)n2)n1 [P.20]	≥ 80%	≥ 80%	≥ 80%	pest or weed control at 200 ppm [7]: ≥ 80%; pest or weed control at 200 ppm [3]: ≥ 80%
CO/N=C/c1cccc(CCCO/N=C(\C)c2cccc(C)n2)n1 [P.21]	–	≥ 80%	–	–
CO/N=C(\C)c1cccc(CCCO/N=C(\C)c2cccc(C(OC)OC)n2)n1 [P.29]	≥ 80%	≥ 80%	≥ 80%	–
CO/N=C(\C)c1cccc(CCCO/N=C(\C)c2cccc(-c3ccccc3)n2)n1 [P.33]	≥ 80%	≥ 80%	≥ 80%	–
CO/N=C(\C)c1cccc(CCCO/N=C(\C)c2ccc3ccccc3n2)n1 [P.34]	≥ 80%	≥ 80%	–	–
CO/N=C(\C)c1cccc(CCCO/N=C/c2nc(C)ccc2O)n1 [P.35]	≥ 80%	≥ 80%	≥ 80%	inhibition at 200 ppm [8]: ≥ 80%; inhibition at 200 ppm [5]: ≥ 80%
CO/N=C(\C)c1cccc(CCCO/N=C(\C)c2cc(C#N)ccn2)n1 [P.37]	–	–	–	inhibition at 200 ppm [8]: ≥ 80%
CO/N=C(\C)c1cccc(CCCO/N=C/c2cccc(C)n2)n1 [P.38]	≥ 80%	≥ 80%	≥ 80%	inhibition at 200 ppm [5]: ≥ 80%
CO/N=C(\C)c1cccc(CCCO/N=C/c2cccc(Oc3ccccc3)n2)n1 [P.39]	≥ 80%	≥ 80%	≥ 80%	–
CO/N=C(\C)c1cccc(CCCO/N=C(\C)c2cc(C(C)(C)C)ccn2)n1 [P.45]	≥ 80%	≥ 80%	≥ 80%	–
CO/N=C(\C)c1cccc(CCCO/N=C(\C)c2nc(C(F)(F)F)ccc2C(=O)OC)n1 [P.46]	≥ 80%	≥ 80%	≥ 80%	inhibition at 200 ppm [8]: ≥ 80%; pest or weed control at 200 ppm [3]: ≥ 80%
CCOC(=O)c1cc(C)cc(/C(C)=N/OCCCc2cccc(/C(C)=N/OC)n2)n1 [P.47]	≥ 80%	≥ 80%	≥ 80%	–
C=CCOc1ccc(C)nc1/C=N/OCCCc1cccc(/C(C)=N/OC)n1 [P.49]	–	–	≥ 80%	–
CO/N=C(\C)c1cccc(CCCO/N=C(\C)c2cccc(C#N)n2)n1 [P.50]	≥ 80%	≥ 80%	≥ 80%	–

Compound	inhibition at 200 ppm [1]	inhibition at 200 ppm [4]	inhibition at 200 ppm [6]	also measured
CO/N=C(\C)c1cccc(CCCO/N=C(\c2ccccc2)c2ccccn2)n1 [P.53]	–	–	–	inhibition at 200 ppm [8]: ≥ 80%
CC/C(=N\OCCCc1cccc(/C(C)=N/OC)n1)c1ccccn1 [P.54]	–	–	–	inhibition at 200 ppm [8]: ≥ 80%
CO/N=C(\C)c1cccc(CCCO/N=C2\CCCc3ccc(C)nc32)n1 [P.57]	≥ 80%	≥ 80%	≥ 80%	inhibition at 200 ppm [8]: ≥ 80%; inhibition at 200 ppm [5]: ≥ 80%; inhibition at 200 ppm [2]: ≥ 80%; pest or weed control at 200 ppm [3]: ≥ 80%
CO/N=C(\C)c1cccc(CCCO/N=C2\CCCc3cnc(C)nc32)n1 [P.60, 2-Methyl-6,7-dihydro-5H-quinazolin-8-one O-[3-(6-(1-((E)-methoxyimino)-ethyl)-pyridin-2-yl)-propyl]-oxime]	–	–	≥ 80%	–
CO/N=C(\C)c1cccc(CCCO/N=C2\CCCc3cnc(-c4ccccc4)nc32)n1 [P.61, 2-Phenyl-6,7-dihydro-5H-quinazolin-8-one O-[3-(6-(1-((E)-methoxyimino)-ethyl)-pyridin-2-yl)-propyl]-oxime]	≥ 80%	≥ 80%	≥ 80%	inhibition at 200 ppm [8]: ≥ 80%; pest or weed control at 200 ppm [3]: ≥ 80%
CO/N=C(\C)c1cccc(CCCO/N=C2\CCCc3cnc(-c4cccc(C)n4)nc32)n1 [P.64]	–	≥ 80%	–	–
CO/N=C(\C)c1cccc(CCCO/N=C2\CCCc3cncnc32)n1 [P.65]	–	≥ 80%	–	–
CO/N=C(\C)c1cccc(CCCO/N=C(\C)c2nc(OC)cc(OC)n2)n1 [P.66]	–	≥ 80%	≥ 80%	–
CCOc1cc(OCC)nc(/C(C)=N/OCCCc2cccc(/C(C)=N/OC)n2)n1 [P.67]	≥ 80%	≥ 80%	≥ 80%	–
CO/N=C(\C)c1cccc(CCCO/N=C(\c2ccccc2)c2nc(OC)cc(OC)n2)n1 [P.68]	≥ 80%	–	≥ 80%	–
CO/N=C(\C)c1cccc(CCCO/N=C(\C)c2cc(C)c3ccccc3n2)n1 [P.71]	–	≥ 80%	–	–
CO/N=C(\C)c1cccc(CCCO/N=C(\C)c2cccc(CCCOCc3ccccc3)n2)n1 [P.75]	≥ 80%	≥ 80%	≥ 80%	–
CO/N=C(\C)c1cccc(CCCO/N=C(\C)c2cccc(CCCO)n2)n1 [P.77]	≥ 80%	≥ 80%	≥ 80%	–
CO/N=C(\C)c1cccc(CCCO/N=C(\C)c2cccc(C#CCO)n2)n1 [P.78]	≥ 80%	–	≥ 80%	inhibition at 200 ppm [5]: ≥ 80%
CO/N=C(\C)c1cccc(CCCO/N=C(\C)c2cccc(C#CC(C)(C)C)n2)n1 [P.79]	–	≥ 80%	≥ 80%	–
CO/N=C(\C)c1cccc(CCCO/N=C2\CCCc3c2nc2cnccc2c3C)n1 [P.80]	≥ 80%	≥ 80%	≥ 80%	inhibition at 200 ppm [5]: ≥ 80%
CCCCc1c2c(nc3ccc(Cl)cc13)/C(=N/OCCCc1cccc(/C(C)=N/OC)n1)CCC2 [P.85]	≥ 80%	≥ 80%	–	–
CO/N=C(\C)c1cccc(CCCO/N=C2\COCc3c2nc2ccccc2c3C)n1 [P.89]	≥ 80%	≥ 80%	≥ 80%	–
CO/N=C(\C)c1cccc(CCCO/N=C2\CCCc3c2nc2c(C)cccc2c3C)n1 [P.90]	≥ 80%	≥ 80%	≥ 80%	inhibition at 200 ppm [2]: ≥ 80%
CO/N=C(\C)c1cccc(CCCO/N=C2\CCCc3c2nc2ccccc2c3-c2ccccc2)n1 [P.99]	≥ 80%	≥ 80%	≥ 80%	inhibition at 200 ppm [5]: ≥ 80%; inhibition at 200 ppm [2]: ≥ 80%
CO/N=C(\C)c1cccc(CCCON=C(CC#N)c2ccccn2)n1 [P.105]	–	–	–	inhibition at 200 ppm [8]: ≥ 80%
CO/N=C(\C)c1cccc(CCCON=C(c2ccc(-n3cccc3)c(C)c2)c2ccccn2)n1 [P.107]	–	–	≥ 80%	–
CO/N=C(\C)c1cccc(CCCON=C(CCN(C)C)c2cccc(Br)n2)n1 [P.108]	–	–	≥ 80%	–
